We go through 1 compound from patent publication US10829464B2, “Benzoheterocyclic alkylamine compounds and use thereof” (priority 2016, dated 2020).

Converted amounts (≈) assume the structure as drawn. Read-outs that look alike come from different tables or passages of the source.

One may read the MIC80 as an inhibitory concentration at the 80% level, which refers to growth in some studies and to a panel of isolates in others. As usually defined, the half-life is the time in which the quantity being followed falls by half.

The test system of one data set is S. aureus. The experiment in a line: Human whole blood killing assay. The data set is classed as cell-based, Staphylococcus aureus. The conditions noted are these: four strains, fresh human blood, 6 h. The text has this: Compound IA-25 was used as a representative compound. The main object of the invention was to impair the ability of bacteria to resist immunological killing in vivo by inhibiting staphyloxanthins synthesis.
The calculated survival rate of bacteria after blood killing=(count of bacteria grown in sample after blood killing×dilution factor)/(count of bacteria grown in control group×dilution factor)×100%.

The next data set relates to Trichophyton rubrum. Put plainly: In vitro antifungal assay (micro liquid-based dilution). The data set is classed as cell-based. Conditions: read-out: Antifungal Activities, MIC80.
For a further data set, the target named is CYP enzyme subtype 2C9 (Homo sapiens, UniProt P11712). Put plainly: Inhibition assay on hepatic CYP450 enzyme. The data set is classed as in vitro ADME. The conditions noted are these: CYP 2C9; read-out: Half inhibitory concentration (IC50).
Sequence of CYP enzyme subtype 2C9 (P11712 whole entry): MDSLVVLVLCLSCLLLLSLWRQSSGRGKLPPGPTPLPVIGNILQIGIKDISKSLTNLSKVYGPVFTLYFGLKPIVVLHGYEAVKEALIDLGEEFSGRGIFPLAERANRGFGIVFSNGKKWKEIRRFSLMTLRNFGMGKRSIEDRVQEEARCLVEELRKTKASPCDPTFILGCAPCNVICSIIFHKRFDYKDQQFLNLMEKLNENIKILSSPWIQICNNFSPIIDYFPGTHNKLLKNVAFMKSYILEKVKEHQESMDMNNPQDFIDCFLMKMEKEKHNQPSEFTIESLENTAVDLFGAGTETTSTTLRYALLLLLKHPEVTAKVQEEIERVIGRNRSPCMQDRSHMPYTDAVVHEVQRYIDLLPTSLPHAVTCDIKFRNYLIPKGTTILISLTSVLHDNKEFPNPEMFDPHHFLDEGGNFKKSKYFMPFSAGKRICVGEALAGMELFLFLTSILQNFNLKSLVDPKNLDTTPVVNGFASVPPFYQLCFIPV
Another data set addresses CYP enzyme subtype 3A4M (Homo sapiens, UniProt P08684). The experiment in a line: Inhibition assay on hepatic CYP450 enzyme. The data set is classed as in vitro ADME. The conditions noted are these: CYP 3A4M; read-out: Half inhibitory concentration (IC50).
For data set [1] the following is noted: rat, in vivo, 1000 mg/kg. The source says: Thirty rats weighing 180-220 g, half male and half female, were picked out and randomly divided into three groups.
The test system of a further data set is S. aureus strain Newman. The experiment in a line: IC50 determination of inhibition of staphyloxanthin synthesis. The class given is cell-based. Conditions: Staphylococcus aureus. Here is the method: Selection of compound concentrations: based on the preliminary screening results, the ability of each compound to inhibit staphyloxanthin synthesis was determined. […] According to the assay results, 10 different concentration gradients were designed for each compound, such that the ability to inhibit staphyloxanthin synthesis comprised substantially from 0% to 100%.
Culture of the strains: single colonies of strain Newman and crtN mutant strain were picked from TSA plates, added into test tubes containing 4 mL of sterile TSB medium, and cultured at 37° C. and 250 rpm for 12 h for later use.
The relative level of staphyloxanthin synthesis at each concentration of the compound of the invention=A450 (sample)/A450 (negative control)*100%. With the molar concentration of the compound as the abscissa and the relative level of staphyloxanthin synthesis as the ordinate, a curve fitting of inhibitor concentration-inhibition rate (log(inhibitor) vs response) was performed in Graphpad prism 5.0 software, and the IC50 of the compound for inhibiting staphyloxanthin synthesis was calculated by software based on the fitting results.
S. aureus was selected for IC50 determination with respect to activity of inhibiting staphyloxanthin synthesis. […]

The subject of data set [2] is Staphylococcus aureus subsp. aureus str. strain Newman. Put plainly: Preliminary screening assay of inhibition of staphyloxanthin synthesis. The class given is cell-based. As for the experimental part: Strains used for assay: freshly activated wild-type Staphylococcus aureus subsp. aureus str. strain Newman and its homologous mutant strain having crtN insertion (without staphyloxanthin synthesis).
Medium for assay: Tryptone Soy broth (TSB), a product from Oxid Corporation, the United Kingdom, which was formulated with distilled water, sterilized at 121° C. for 15 min for later use.
Method of Preliminary Screening Assay:
(1) Preparation of compound: the compound of the invention was dissolved in dimethyl sulfoxide (DMSO) to prepare a stock solution having a concentration of 10 mM; 400 μL of DMSO was added to 100 μL of the stock solution to get a dilution with a concentration of 2 mM; 250 μL (2 mM) of the dilution was taken after mixing, and an equal amount of DMSO was added thereto for 2-fold dilution to get a solution with a concentration of […] for later use.
(2) Culture of the strain: single colonies of strain Newman were picked from TSA plates into a test tube containing 4 mL of sterile TSB medium, and cultured at 37° C. and 250 rpm for 12 h for later use.

In the next data set the target is CYP enzyme subtype 2C19 (Homo sapiens, UniProt P33261). The experiment in a line: Inhibition assay on hepatic CYP450 enzyme. The class given is in vitro ADME. The conditions noted are these: CYP 2C19; read-out: Half inhibitory concentration (IC50).
Sequence of CYP enzyme subtype 2C19 (P33261 whole entry): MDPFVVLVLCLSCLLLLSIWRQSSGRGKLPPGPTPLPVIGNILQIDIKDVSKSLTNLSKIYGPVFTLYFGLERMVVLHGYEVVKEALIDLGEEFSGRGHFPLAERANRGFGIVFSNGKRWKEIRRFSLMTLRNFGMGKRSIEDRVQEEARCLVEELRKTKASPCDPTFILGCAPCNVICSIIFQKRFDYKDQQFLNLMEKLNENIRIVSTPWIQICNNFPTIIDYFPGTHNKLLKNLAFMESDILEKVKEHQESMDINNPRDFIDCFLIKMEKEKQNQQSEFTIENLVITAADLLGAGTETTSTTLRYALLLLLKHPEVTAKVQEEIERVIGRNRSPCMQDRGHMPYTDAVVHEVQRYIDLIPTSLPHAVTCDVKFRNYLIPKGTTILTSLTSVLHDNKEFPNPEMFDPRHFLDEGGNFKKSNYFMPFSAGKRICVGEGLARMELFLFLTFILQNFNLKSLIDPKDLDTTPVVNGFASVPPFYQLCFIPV
A short description of another data set: in vitro. The conditions noted are these: mouse, microsomes.
The next data set relates to NRS108. Put plainly: In vivo pharmacodynamics evaluation in infected mice. Conditions: BALB/c mice infected retroorbitally with NRS108. Here is the method:
(§1) Compound IA-25 was used as a representative compound. The laboratory SPF-grade female BALB/c mice were purchased from Shanghai Jiesijie Laboratory Animal Co., Ltd. and bred under aseptic condition to 6-8 weeks old. The S. aureus strains which had been cultured overnight were transferred to fresh and sterile TSB medium and cultured at 37° C. and 250 rpm for 3 h to exponential growth phase; the culture was washed twice with PBS buffer, and then suspended in PBS for later use. In the mouse infection assay, the mice were divided into several groups, each containing 10 mice.

A further data set has as its system NRS271. The data set is described as above. Conditions: BALB/c mice infected retroorbitally with NRS271. Here is the method:
as §1

For the next data set, the system named is LRSA56. Described as above. The conditions noted are these: BALB/c mice infected retroorbitally with LRSA56. As for the experimental part:
as §1

The next data set concerns NF65Y. Described as above. The conditions noted are these: BALB/c mice infected retroorbitally with NF65Y. As for the experimental part:
as §1

The test system of a further data set is Mu50. The data set is described as above. Conditions: BALB/c mice infected retroorbitally with Mu50. Here is the method:
as §1

In a further data set the test system is strain Newman. The data set is described as above. The conditions noted are these: BALB/c mice infected retroorbitally with Newman. Here is the method: as §1
In the next data set the test system is LRSA202. The description is as above. The conditions noted are these: BALB/c mice infected retroorbitally with LRSA202. Here is the method: as §1

Sequence of CYP enzyme subtype 3A4M (P08684 whole entry): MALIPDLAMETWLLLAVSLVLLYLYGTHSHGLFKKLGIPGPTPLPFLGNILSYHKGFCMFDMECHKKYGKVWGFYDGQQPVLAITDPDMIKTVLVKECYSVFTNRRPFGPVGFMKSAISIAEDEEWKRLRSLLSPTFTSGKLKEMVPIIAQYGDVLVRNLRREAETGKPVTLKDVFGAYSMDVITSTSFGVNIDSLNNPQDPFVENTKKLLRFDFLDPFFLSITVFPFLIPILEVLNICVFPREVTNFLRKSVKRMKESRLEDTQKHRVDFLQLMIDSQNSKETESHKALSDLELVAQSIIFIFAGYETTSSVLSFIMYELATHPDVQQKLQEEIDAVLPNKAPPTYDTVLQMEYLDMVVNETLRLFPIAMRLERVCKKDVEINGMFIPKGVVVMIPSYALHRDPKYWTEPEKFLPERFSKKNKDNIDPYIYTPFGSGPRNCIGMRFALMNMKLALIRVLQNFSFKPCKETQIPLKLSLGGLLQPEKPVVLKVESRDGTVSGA

Regarding `CN(C/C=C/c1ccc(-c2ccccc2)cc1)Cc1coc2ccccc12` [Compound IA-25, (E)-N-methyl-N-[(benzofuran-3-yl)methylene]-3-(4-phenylphenyl)-prop-2-en-1-amine], in the data set with S. aureus, the “bacterial survival rate after human blood killing” value is reported as “less than 3%”. Moreover, the MIC80 with Trichophyton rubrum worked out at 64 µg/mL (≈ 181 µM). In addition, the IC50 was above 10000 nM at CYP enzyme subtype 2C9; above 10000 nM at CYP enzyme subtype 3A4M; 2 ± 0.1 nM with S. aureus strain Newman (Newman, Table 3, read-out: Inhibitory activity on staphyloxanthin IC50); 2 ± 0.1 nM with S. aureus strain Newman (S. aureus strain Newman, Table 1, read-out: IC50, inhibitory activity on staphyloxanthin synthesis); above 10000 nM on CYP enzyme subtype 2C19. Further, in data set [1], the “abnormality in the dissected organs” value is recorded as “there was not any abnormality in the dissected organs”. Also, the “death or poor behavior events” value in data set [1] was “did not result in any death or poor behavior events in the rats”. In addition, the “colors in final photograph of inhibition of staphyloxanthin synthesis” value in [2] (50, 10, 5, 2.5, 1.25, 0.625, 0.3125 and 0 μM from left to right) is “white to yellow from left to right gradually”. The “concentration at which staphyloxanthin synthesis is significantly inhibited” value in data set [2] (strain Newman, 24 h culture, lowest concentration tested) was at most 0.3125 µM. In the data set “in vitro”, this compound showed a half-life of 0.833 to 2 h. Moreover, the “Viable colony counts in vivo” value in the data set on NRS108 was 2.3 Log10CFU; in the data set on NRS271, 6.4 Log10CFU; in the data set on LRSA56 it was 3.3 Log10CFU; with NF65Y, 3.5 Log10CFU; with Mu50 it was 2.7 Log10CFU; with strain Newman it was 3.8 Log10CFU. Besides, the “Viable colony counts in vivo” value in the data set with LRSA202 is reported as 4.9 Log10CFU.
